Results published in patent publication US20210300940A1 (Merck Patent GmbH, priority 2018, published 2021).

Columns and labels:
[1] = biological target: T1, TLR7 (Homo sapiens, UniProt Q9NYK1); test: HEK/293 TLR7 Cell Assay; type: cell-based; details: TLR7/NFKb HEK cells, R848 agonist 10 uM final concentration, Steady-Glo readout; read-out: TLR7 potency
T1 construct: expressed in transfected cells; host or cells: HEK/293 cells carrying TLR7 and an NF-kB luciferase reporter
T1 sequence (Q9NYK1 27-1049): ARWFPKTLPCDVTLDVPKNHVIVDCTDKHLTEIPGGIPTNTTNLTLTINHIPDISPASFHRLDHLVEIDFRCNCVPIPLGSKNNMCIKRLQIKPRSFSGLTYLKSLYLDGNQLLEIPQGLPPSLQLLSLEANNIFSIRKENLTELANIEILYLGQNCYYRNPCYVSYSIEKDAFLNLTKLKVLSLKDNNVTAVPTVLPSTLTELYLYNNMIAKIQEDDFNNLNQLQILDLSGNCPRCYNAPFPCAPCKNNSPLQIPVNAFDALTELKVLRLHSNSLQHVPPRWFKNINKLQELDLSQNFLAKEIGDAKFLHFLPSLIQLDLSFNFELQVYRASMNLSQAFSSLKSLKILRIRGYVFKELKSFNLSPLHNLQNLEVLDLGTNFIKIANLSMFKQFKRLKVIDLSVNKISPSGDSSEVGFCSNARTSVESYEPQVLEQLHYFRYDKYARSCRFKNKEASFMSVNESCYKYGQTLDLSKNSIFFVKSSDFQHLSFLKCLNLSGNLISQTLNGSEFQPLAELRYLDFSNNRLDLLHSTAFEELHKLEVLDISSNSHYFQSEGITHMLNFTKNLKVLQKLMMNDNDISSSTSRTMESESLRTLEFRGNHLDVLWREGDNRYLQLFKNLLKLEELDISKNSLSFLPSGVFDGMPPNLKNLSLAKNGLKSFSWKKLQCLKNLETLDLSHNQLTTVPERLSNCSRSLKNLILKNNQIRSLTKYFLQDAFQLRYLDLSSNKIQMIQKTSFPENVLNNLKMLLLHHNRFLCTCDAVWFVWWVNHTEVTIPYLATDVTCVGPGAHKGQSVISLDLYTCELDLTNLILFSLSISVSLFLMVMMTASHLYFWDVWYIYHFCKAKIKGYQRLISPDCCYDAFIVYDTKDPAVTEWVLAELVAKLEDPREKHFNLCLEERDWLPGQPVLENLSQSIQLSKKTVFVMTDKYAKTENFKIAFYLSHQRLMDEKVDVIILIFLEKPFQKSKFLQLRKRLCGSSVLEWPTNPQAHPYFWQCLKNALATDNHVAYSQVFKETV
Outline: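 TLR7/NF-κB reporter HEK293 cells, 5000/well, cultured 24 h, then preincubated 30 min with compound before R848 agonist (10 uM final). After 5 h stimulation, Steady-Glo luciferase luminescence read.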

[2] = biological target: T2, TLR8 (Homo sapiens, UniProt Q9NR97); test: HEK/293 TLR8 Cell Assay; type: cell-based; details: HEK cells, R848 agonist 30 uM final concentration, Steady-Glo readout; read-out: TLR8 potency
T2 construct: expressed in transfected cells; host or cells: HEK/293 reporter cells (NF-kB luciferase)
T2 sequence (Q9NR97 27-1041): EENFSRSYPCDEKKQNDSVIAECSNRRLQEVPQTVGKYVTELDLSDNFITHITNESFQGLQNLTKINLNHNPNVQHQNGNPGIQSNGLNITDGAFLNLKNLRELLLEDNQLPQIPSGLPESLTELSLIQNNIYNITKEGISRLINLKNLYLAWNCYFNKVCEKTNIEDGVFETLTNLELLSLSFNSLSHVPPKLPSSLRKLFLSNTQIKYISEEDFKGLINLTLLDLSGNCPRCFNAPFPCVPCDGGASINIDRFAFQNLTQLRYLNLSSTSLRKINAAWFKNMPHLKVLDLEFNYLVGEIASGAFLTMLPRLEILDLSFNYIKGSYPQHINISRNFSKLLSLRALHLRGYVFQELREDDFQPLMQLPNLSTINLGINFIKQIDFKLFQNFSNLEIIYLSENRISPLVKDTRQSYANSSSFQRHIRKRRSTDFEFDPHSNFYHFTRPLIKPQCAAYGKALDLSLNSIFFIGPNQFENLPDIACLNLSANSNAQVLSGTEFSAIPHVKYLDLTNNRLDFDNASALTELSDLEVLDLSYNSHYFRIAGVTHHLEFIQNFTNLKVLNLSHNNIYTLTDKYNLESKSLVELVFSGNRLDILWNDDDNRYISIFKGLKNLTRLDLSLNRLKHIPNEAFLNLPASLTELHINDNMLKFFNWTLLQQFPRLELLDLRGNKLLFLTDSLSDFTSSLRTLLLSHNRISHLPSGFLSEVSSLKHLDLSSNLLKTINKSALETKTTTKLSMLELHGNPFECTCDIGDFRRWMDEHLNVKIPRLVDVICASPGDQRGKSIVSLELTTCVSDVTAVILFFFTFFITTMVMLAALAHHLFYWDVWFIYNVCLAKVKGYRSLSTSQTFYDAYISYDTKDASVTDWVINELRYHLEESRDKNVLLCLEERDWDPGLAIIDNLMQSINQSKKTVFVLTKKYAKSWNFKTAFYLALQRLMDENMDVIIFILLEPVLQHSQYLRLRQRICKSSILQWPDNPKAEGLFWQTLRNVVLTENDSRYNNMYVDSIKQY

| Compound | IC50 [1] [nM] | IC50 [2] [nM] |
| --- | --- | --- |
| C[C@H]1C[C@@H](NCC(O)CO)CN(c2cnc(C#N)c3ncccc23)C1 (stereo partly drawn) [Example 35, 5-[(3R,5S)-3-(2,3-Dihydroxy-propylamino)-5-methyl-piperidin-1-yl]-naphthyridine-8-carbonitrile] | > 150 | > 150 |
| C[C@@H]1CN(c2ccc(C#N)c3nccnc23)C[C@H](C(=O)NC2CCN(CC(F)(F)F)CC2)O1 [Example 247, (2R,6R)-4-(8-Cyano-quinoxalin-5-yl)-6-methyl-morpholine-2-carboxylic acid [1-(2,2,2-trifluoro-ethyl)-piperidin-4-yl]-amide] | < 75 | < 75 |
| C[C@@H]1CN(c2ccc(C#N)c3nccnc23)C[C@H](C(=O)NCCC2CS(=O)(=O)C2)O1 [Example 259, (2R,6R)-4-(8-cyanoquinoxalin-5-yl)-N-[2-(1,1-dioxo-1λ^6-thietan-3-yl)ethyl]-6-methylmorpholine-2-carboxamide] | < 75 | > 150 |
| CN1CCN(CC(=O)N[C@@H]2C[C@H](C(F)(F)F)CN(c3ccc(C(F)(F)F)c4ncccc34)C2)CC1 [Example 66, 2-(4-methylpiperazin-1-yl)-N-[(3R,5S)-5-(trifluoromethyl)-1-[8-(trifluoromethyl)quinolin-5-yl]piperidin-3-yl]acetamide] | < 75 | < 75 |
| (2S)—N-[(3R,5S)-5-amino-1-(8-cyanoquinazolin-5-yl)piperidin-3-yl]-2-(4-methylpiperazin-1-yl)propanamide [Example 97] | < 75 | > 150 |
| C[C@H]1C[C@@H](NC2CS(=O)(=O)C2)CN(c2ccc(C(F)(F)F)c3ncccc23)C1 [Example 13, (1,1-Dioxo-1lambda6-thietan-3-yl)-[(3R,5S)-5-methyl-1-(8-trifluoromethyl-quinolin-5-yl)-piperidin-3-yl]-amine] | < 75 | < 75 |
| Cc1nnc([C@H]2CN(c3ccc(C#N)c4nccnc34)C[C@@H](C)O2)o1 (racemic) [Example 212, 8-[(2R,6R)-2-Methyl-6-(5-methyl-[1,3,4]oxadiazol-2-yl)-morpholin-4-yl]-quinoxaline-5-carbonitrile] | > 150 | < 75 |
| C[C@@H]1CN(c2ccc(C#N)c3nccnc23)C[C@H](C(=O)N2CC3(C2)CS(=O)(=O)C3)O1 [Example 251, 8-[(2R,6R)-2-(2,2-Dioxo-2lambda6-thia-6-aza-spiro[3.3]heptane-6-carbonyl)-6-methyl-morpholin-4-yl]-quinoxaline-5-carbonitrile] | > 150 | > 150 |
| C[C@H]1C[C@@H](NCC2CCC(=O)N2)CN(c2ccc(C(F)(F)F)c3nccnc23)C1 (stereo partly drawn) [Example 28, 5-{[(3R,5S)-5-Methyl-1-(8-trifluoromethyl-quinoxalin-5-yl)-piperidin-3-ylamino]-methyl}-pyrrolidin-2-one] | < 75 | < 75 |
| C[C@@H](C(=O)N[C@@H]1C[C@H](C(F)(F)F)CN(c2ccc(C#N)c3ncccc23)C1)N1CCN(C)CC1 (single isomer, unassigned) [Example 101] | < 75 | < 75 |
| C[C@H]1C[C@@H](NC(=O)CC2(F)CCN(C)CC2)CN(c2ccc(C#N)c3nccnc23)C1 [Example 192, N-[(3R,5S)-1-(8-Cyano-quinoxalin-5-yl)-5-methyl-piperidin-3-yl]-2-(4-fluoro-1-methyl-piperidin-4-yl)-acetamide] | < 75 | < 75 |
| CN1CC[C@@](F)(CNC(=O)[C@@H]2CN(c3ccc(C#N)c4nccnc34)C[C@H](C(F)(F)F)O2)C1 (single isomer, unassigned) [Example 356] | < 75 | < 75 |
| C[C@@H]1CN(c2ccc(C#N)c3nccnc23)C[C@H](C(=O)NCCN2CCS(=O)(=O)CC2)O1 [Example 239, (2R,6R)-4-(8-Cyano-quinoxalin-5-yl)-6-methyl-morpholine-2-carboxylic acid [2-(1,1-dioxo-1lambda6-thiomorpholin-4-yl)-ethyl]-amide] | < 75 | > 150 |
| CN1CCC(F)(CNC(=O)[C@@H]2CN(c3cnc(C#N)c4ncccc34)C[C@H](C(F)(F)F)O2)CC1 (single isomer, unassigned) [Example 351] | < 75 | < 75 |
| N#Cc1ccc(N2C[C@@H](C(F)(F)F)O[C@@H](C(=O)NC[C@]3(F)CCNC3)C2)c2cccnc12 (single isomer, unassigned) [Example 314] | > 150 | > 150 |
| COC[C@@H](O)CNC(=O)[C@H]1CN(c2ccc(C#N)c3nccnc23)C[C@@H](C)O1 (single isomer, unassigned) [Example 327] | < 75 | < 75 |
| C[C@@H]1CN(c2ccc(C#N)c3nccnc23)C[C@H](CN2CC[C@@H](O)C2)O1 [Example 221, 8-[(2S,6R)-2-((R)-3-Hydroxy-pyrrolidin-1-ylmethyl)-6-methyl-morpholin-4-yl]-quinoxaline-5-carbonitrile] | < 75 | > 150 |
| C[C@H]1C[C@@H](NS(=O)(=O)NC(=O)CN2CCOCC2)CN(c2ccc(C(F)(F)F)c3ncccc23)C1 [Example 203, N-{[(3R,5S)-5-methyl-1-[8-(trifluoromethyl)quinolin-5-yl]piperidin-3-yl]sulfamoyl}-2-(morpholin-4-yl)acetamide] | 75 to 150 | < 75 |
| C[C@H]1C[C@@H](NCCN2CCOC2=O)CN(c2ccc(C(F)(F)F)c3nccnc23)C1 [Example 31, 3-{2-[(3R,5S)-5-Methyl-1-(8-trifluoromethyl-quinoxalin-5-yl)-piperidin-3-ylamino]-ethyl}-oxazolidin-2-one formic acid] | < 75 | < 75 |
| N#Cc1ccc(N2C[C@@H](C(F)(F)F)O[C@@H](C(=O)N3C[C@@H](N)C4(CC4)C3)C2)c2nccnc12 (single isomer, unassigned) [Example 311] | < 75 | < 75 |
| CC(=O)NCCN[C@@H]1C[C@H](C)CN(c2ccc(C(F)(F)F)c3nccnc23)C1 [Example 25, N-{2-[(3R,5S)-5-Methyl-1-(8-trifluoromethyl-quinoxalin-5-yl)-piperidin-3-ylamino]-ethyl}-acetamide formic acid] | < 75 | < 75 |
| CCN(CC)C1CCN(C[C@H]2CN(c3ccc(C#N)c4nccnc34)C[C@@H](C)O2)CC1 [Example 217, 8-[(2S,6R)-2-(4-Diethylamino-piperidin-1-ylmethyl)-6-methyl-morpholin-4-yl]-quinoxaline-5-carbonitrile] | < 75 | < 75 |
